This note sets out measurements from US12060360B2, “Lysyl oxidase inhibitors” (The Institute of Cancer Research: Royal Cancer Hospital, priority 2017, dated 2024).

Assay [1] deals with MDA-MB-231 human breast adenocarcinoma. Briefly: MDA-MB-231 xenografts, primary tumour volume T/C. Type of assay: in vivo. The conditions noted are these: 200 mg/kg po qd, ratio of average tumour volume treated/vehicle control, p<0.05. The protocol:
(§1) All procedures involving animals were approved by the Animal Welfare and Ethical Review Body of the Institute of Cancer Research and Cancer Research UK Manchester Institute in accordance with National Home Office regulations under the Animals (Scientific Procedures) Act 1986 and according to the guidelines of the Committee of the National Cancer Research Institute Tumour size was determined by caliper measurements of tumour length, width and depth and volume was calculated as volume=0.5236×length×width×depth (mm).
MDA-MB-231 xenografts. Ncr nude female mice at 6 weeks old from Charles River were injected into the third upper nipple mammary fat pad with MDA-MB-231 Luc 4×10^6 in 100 ul PB (50:50 Matrigel). When tumours reach a mean of 80 mm^3 around 10 days post cell inoculation the animals are allocated in 4 groups of 8. LOX inhibitor treatment is then administrated by oral gavage dosing, at 0.2 ml/20 g bodyweight once daily for up to 28 consecutive days. Tumours and weights are measured twice weekly using calipers and the animals can be imaged using non invasive method by bioluminescence using IVIS 200 imaging machine, weekly using 150 mg/kg luciferin administrate intraperitoneal or subcutaneous. At the end of the study the animals are culled, and samples taken, fixed or snap frozen in liquid nitrogen. Frozen samples kept at −80 degree centigrade until being analyzed and the fixed samples stained according to desired marker.
(§2) For therapeutic efficacy assessment, the ratio of average tumour volume between compound treated and vehicle control treated (T/C) is calculated. Reduction in tumour volume in the compound treated group compared to vehicle-treated control group results in T/C<1. The efficacy of LOX inhibitors described in this invention, as measured by T/C in a pancreatic cancer model, a colorectal cancer model and a breast cancer model is shown in Table 2 and is significant (p<0.05) for all the data presented.

Assay [2] concerns PDAC TRP53R172H (p53 mut) cells (mouse pancreatic carcinoma). The experiment in a line: PDAC allografts, primary tumour volume T/C. The following applies: 200 mg/kg po qd; ratio of average tumour volume treated/vehicle control; p<0.05. Type of assay: in vivo. The protocol: as §1
PDAC allografts: CD1 nu/nu female mice at 6 weeks of age were inoculated subcutaneously in the right flank with 2×10^6 PDAC TRP53R172H (p53 mut) cells at 100 ul suspension per animal. In some examples, the oral dosing by metal gavage commences one day after cells inoculation, at 0.2 ml/20 g bodyweight per animal once daily for 2-4 weeks, with compound dissolved in 5.25% tween20/saline or 5% DMSO/water. In other examples, groups of 7-8 mice were assigned to treatment following stratified allocation of tumour volumes with a median size of circa 100 mm^3. […] Control animals received a similar dosage of vehicle (5.25% tween20/saline). Tumours and weights are measured twice weekly using calipers. At the end of the study the animals are culled, and samples taken, fixed or snap frozen in liquid nitrogen. Frozen samples kept at −80 degree centigrade until being analysed and the fixed samples stained according to the desired marker.
as §2

Assay [3] has as its system MMTV-PyMT breast transgenic model primary tumour. The experiment in a line: MMTV-PyMT transgenic mouse breast cancer model, primary tumour T/C. Type of assay: in vivo. The conditions noted are these: 200 mg/kg po qd; ratio of average tumour volume treated/vehicle control; p<0.05. The protocol: as §1
MMTV-PyMT (Guy et al, 1992) (FVB) female mice were randomized by non-statistical methods to LOX inhibitor treatment groups from day 70 post-birth, when animals had no detectable tumour. Mice were treated daily by oral gavage with LOX inhibitor in vehicle, or daily vehicle (5% DMSO/2.5% Tween20 in water) by oral gavage. Tumour size was determined unblinded by caliper measurements of tumour length, width and depth and volume was calculated as 0.5236×length×width×depth (mm). In all experiments, mice were humanely killed and mammary tumours and lungs were collected when the primary tumours reached ethical limits or signs of ill health.
as §2

Assay [4] has as its target T1, LOX (Mus musculus, UniProt P28301).
T1 construct: Full length LOX cDNA was then PCR cloned into pEGFP-N1 (Clonetech), or biosensor vector proGFP2-N1; expressed in transfected cells; host or cells: MDCK cells grown as cysts on Matrigel, G418-selected
T1 sequence (P28301 163-411): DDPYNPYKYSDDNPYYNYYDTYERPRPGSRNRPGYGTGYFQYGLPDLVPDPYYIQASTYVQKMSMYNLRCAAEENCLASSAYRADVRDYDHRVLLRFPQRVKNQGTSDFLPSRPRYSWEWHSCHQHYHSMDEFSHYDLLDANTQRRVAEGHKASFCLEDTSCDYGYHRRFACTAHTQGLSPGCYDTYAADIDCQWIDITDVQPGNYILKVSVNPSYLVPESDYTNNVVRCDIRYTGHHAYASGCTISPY
Briefly: LOX activity in cysts assay (LOX-roGFP2 biosensor, MDCK cysts). Type of assay: cell-based. The conditions noted are these: MDCK cysts, roGFP2 ratio at basal surface; read-out: LOX biosensor IC50 (cyst). Summed up: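 Live MDCK cysts grown 10 days on Matrigel and expressing mouse LOX fused to the roGFP2 redox biosensor, with inhibitors added 30 min before confocal imaging. Oxidised/reduced ratio (405/488 nm excitation, 500–530 nm emission) at the basal cyst surface taken as LOX activity. DMSO defines 0% and 1 mM BAPN 100% inhibition.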

Molecules are shown by their SMILES. Bounds are passed on as bounds.

The IC50 is the point on the concentration scale where inhibition reaches its midpoint. For `CCOc1ccc(N2C[C@H]3CN(CCCC#N)C[C@@H]2C(C)(C)C3)cc1` [Example 42, 4-((1R,5S)-6-(4-ethoxyphenyl)-9,9-dimethyl-3,6-diazabicyclo[3.2.2]nonan-3-yl)butanenitrile], in assay [1], the response vs control in vivo at 200 mg/kg was 41%. Moreover, the “T/C PDAC R172H (p53 mut) (mouse pancreatic carcinoma) - primary tumour” value in assay [2] is recorded as 0.44. Besides, in assay [3], the “T/C MMT-PyMT breast transgenic model - primary tumour” value was 0.50. Moreover, the IC50 in assay [4] was less than 630 nM.
